Experimental data reported in patent publication US20240398701A1, “MANUFACTURING METHODS FOR GASTRIC RESIDENCE SYSTEMS” (Lyndra Therapeutics, Inc., priority 2023, published 2024).

Assay: Time-dependent behaviour in simulated gastric fluid over seven days
Assay type: physicochemical
Excerpt: In some embodiments, a gastric residence system may include one or more time-dependent disintegrating matrices instead of or in addition to one or more enteric disintegrating matrices. A time-dependent disintegrating matrix may include one or more time-dependent polymers or linkers, that is, polymers that degrade in a time-dependent manner in the gastric environment. […] Thus, a polymer that degrades in a time-dependent manner can be readily prepared by mixing Plastoid B and triacetin; the degradation time of the Plastoid B-triacetin mixture can be extended by increasing the amount of Plastoid B used in the mixture (that is, using less triacetin in the mixture), while the degradation time can be decreased by decreasing the amount of Plastoid B used in the mixture (that is, using more triacetin in the mixture).

Question: Which “release from a polymer formulation” value does the source give for CC(=O)OCC(COC(C)=O)OC(C)=O [triacetin] here?
Answer: releases from a polymer formulation in a time-dependent manner
